The text below walks through data of ChEMBL document CHEMBL1145572, “Analogues of N-hydroxy-N'-phenylthiourea and N-hydroxy-N'-phenylurea as inhibitors of tyrosinase and melanin formation” (Bioorg Med Chem Lett, 2008).

pIC50: −log10 of the molar value. Active and inactive are the calls of the source. The calls are words filed in the database; no cut-off is given here.

Assay [1] deals with T1, Tyrosinase (Agaricus bisporus, UniProt O42713).
T1 sequence (O42713 whole entry): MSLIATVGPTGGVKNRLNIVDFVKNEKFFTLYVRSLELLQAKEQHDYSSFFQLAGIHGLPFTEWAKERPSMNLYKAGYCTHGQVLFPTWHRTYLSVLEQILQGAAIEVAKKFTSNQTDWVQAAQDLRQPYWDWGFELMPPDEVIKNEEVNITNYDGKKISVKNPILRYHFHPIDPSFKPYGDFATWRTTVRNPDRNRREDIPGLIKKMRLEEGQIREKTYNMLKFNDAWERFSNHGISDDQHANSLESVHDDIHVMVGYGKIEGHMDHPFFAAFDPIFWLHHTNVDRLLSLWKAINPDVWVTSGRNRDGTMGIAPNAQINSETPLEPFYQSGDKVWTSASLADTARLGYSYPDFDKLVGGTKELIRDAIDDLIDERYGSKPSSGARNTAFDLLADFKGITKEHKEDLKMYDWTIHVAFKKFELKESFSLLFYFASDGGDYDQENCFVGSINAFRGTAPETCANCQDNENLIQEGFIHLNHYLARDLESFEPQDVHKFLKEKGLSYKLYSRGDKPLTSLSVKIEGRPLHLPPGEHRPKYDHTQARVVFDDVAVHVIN
Description: Inhibition of mushroom tyrosinase

Assay [2] deals with B16. Kind of assay: Inhibition of melanin production in mouse B16 cells at 100 uM. The assay is classed as functional.
Assay [3] deals with B16. In words: Cytotoxicity against mouse B16 cells at 100 uM. Type of assay: functional, cell-based.
Assay [4] deals with B16. Kind of assay: Inhibition of melanin production in mouse B16 cells at 50 uM. Type of assay: functional.

`ONC(=S)Nc1ccccc1`: in assay [1], the pIC50 is less than 3.00. The outcome in assay [2] and in assay [3] was inactive.

As to `CC(C)(C)[Si](C)(C)ONC(=O)Nc1ccccc1`, the pIC50 in assay [1] is 4.15. Moreover, the result in assay [2] and in assay [3] was inactive.

In turn, `CN(O)C(=O)Nc1ccc(Br)cc1` showed a pIC50 in assay [1] of less than 3.00. Besides, the outcome in assay [2] and in assay [3] was inactive.

As for `CONC(=S)Nc1ccc([N+](=O)[O-])cc1`, the pIC50 in assay [1] is less than 3.00. The result in assay [3] was inactive. Also, the inhibition at 50 µM in assay [4] came to 75.5%.

Compound `O=C(NO)Nc1ccc([N+](=O)[O-])cc1` showed a pIC50 in assay [1] of 5.59. Further, in assay [2], at 100 µM the inhibition was 86%. Moreover, the outcome in assay [3] was inactive.

With `CC(=O)N(O)C(=O)Nc1ccccc1`, the pIC50 in assay [1] was 3.77. The outcome in assay [3] was inactive.

`CONC(=S)Nc1ccc2ccccc2c1` showed a pIC50 in assay [1] of 4.59. This compound also yielded an inhibition at 100 µM in assay [2] of 85%. Also, in assay [3], the result was inactive.

In the case of `CONC(=O)Nc1ccccc1`, the pIC50 in assay [1] is less than 3.00. The result in assay [2] and in assay [3] was inactive.

`O=C(NO)Nc1ccc(O)cc1` had a negative-log IC50 (pIC50) in assay [1] of 4.39. Further, the inhibition at 100 µM in assay [2] came to 19%. Further, the result in assay [3] was inactive.

`O=C(NO)Nc1ccc(Br)cc1` gave a negative-log IC50 (pIC50) in assay [1] of 5.57. This compound yielded an inhibition at 100 µM in assay [2] of 75.5%. Moreover, in assay [3], the outcome was inactive.

For `O=C(NO)Nc1ccc(C(F)(F)F)cc1`, the pIC50 in assay [1] was 5.37. In addition, 100 µM produced 79.3% inhibition in assay [2]. Also, in assay [3], the result was inactive.

Compound `O=C(NO)Nc1ccccc1` had a pIC50 in assay [1] of 6.54. The compound also yielded an inhibition at 100 µM in assay [2] of 78%. Moreover, the result in assay [3] was inactive.

In assay [1], `NC(=O)Nc1ccccc1` showed a pIC50 of less than 3.00. Also, in assay [2], the result was inactive.

Compound `COc1ccc(NC(=O)NO)cc1` gave a pIC50 in assay [1] of 4.49. Further, the outcome in assay [2] and in assay [3] was inactive.

`CN(O)C(=O)Nc1ccccc1`: the pIC50 in assay [1] was less than 3.00. Further, the result in assay [2] and in assay [3] was inactive.

In assay [1], `O=C(NO)Nc1ccc(NC(=O)NO)cc1` had a pIC50 of 4.57. The same compound gave an inhibition at 100 µM in assay [2] of 66%. Further, in assay [3], the result was inactive.

On to `CN(C(=O)NO)c1ccccc1`, for which the negative logarithm of the IC50 (pIC50) in assay [1] was 4.80. Further, in assay [3], the outcome was inactive.

For the compound `CN(O)C(=O)N(C)c1ccccc1`, the negative-log IC50 (pIC50) in assay [1] is less than 3.00. For the same compound, the result in assay [3] was inactive.

For the compound `COc1ccc(NC(=O)NO)c(OC)c1`, the negative-log IC50 (pIC50) in assay [1] is less than 3.00. In addition, the result in assay [2] and in assay [3] was inactive.

With `O=C(NO)Nc1ccc(OCc2ccccc2)cc1`, in assay [1], the negative-log IC50 (pIC50) is 5.20. Further, the outcome in assay [2] and in assay [3] was inactive.

Take `CCCCOc1ccc(NC(=O)NO)cc1`: the negative logarithm of the IC50 (pIC50) in assay [1] is less than 3.00. Besides, the outcome in assay [2] and in assay [3] was inactive.

The compound `Oc1ccc(O)cc1` [HYDROQUINONE] gave a pIC50 in assay [1] of 4.43.

Consider `CONC(=O)N(C)c1ccccc1`, for which the negative logarithm of the IC50 (pIC50) in assay [1] is less than 3.00. The outcome in assay [3] was inactive.

On to `OC[C@H]1O[C@@H](Oc2ccc(O)cc2)[C@H](O)[C@@H](O)[C@@H]1O` [ARBUTIN], for which at 100 µM the inhibition in assay [2] was 43.8%.

Consider `CN(O)C(=O)Nc1ccc([N+](=O)[O-])cc1`, for which, in assay [1], the pIC50 was 3.11. This compound displayed an inhibition at 100 µM in assay [2] of 82%. The result in assay [3] was inactive.

The term pIC50 denotes −log10 of the IC50, conventionally taken in molar units. Higher therefore signals a small IC50. A word on the inhibition: it is the percentage by which the read-out fell short of the control. Higher therefore signals a response far below the control.
